{
  "source": "patent US11992013B2",
  "about": "“Feral hog toxicant” (priority 2019, dated 2024)",
  "key": {"[1]": {"target": "methemoglobin reductase (MR)", "conditions": "MR inhibitor; cited from earlier work"}, "[2]": {"test_system": "methemoglobin reductase (MR)", "test": "Inhibition of methemoglobin reductase (MR) by luteolin", "type": "biochemical", "conditions": "assuming about 65 mL blood per kilogram body mass in the pig; no experimental data", "from_the_text": "An optional embodiment enhances the effective of sodium nitrite by incorporating the flavonoid luteolin into a bait. Luteolin is found in botanical sources including celery, broccoli, green pepper, parsley, thyme, dandelion, perilla, chamomile, carrots, olive oil, peppermint, rosemary, oranges and other citrus, oregano, and certain palm seeds. The mechanism of sodium nitrite toxicity is to oxidize hemoglobin in the blood to methemoglobin, converting the iron atom from the ferrous form to the ferric form. Methemoglobin has a poor ability to transport oxygen to cells. Methemoglobin is naturally present in mammalian blood at 1-2% of total hemoglobin, a level that is ordinarily tempered by the enzyme methemoglobin reductase (MR). […] Because hogs have a poor ability to detoxify methemoglobin build-up, they are inherently more prone to developing high concentrations of methemoglobin upon exposure to sodium nitrite, which can quickly lead to death. In an optional embodiment, this physiology is further exploited by incorporating MR inhibitors into the bait, thus facilitating control of feral hogs while releasing less total nitrite into the environment. Luteolin is a highly-potent, commercially-available, naturally-occurring, tasteless MR inhibitor. Adding small amounts of luteolin to a nitrite-containing bait will reduce a hog's ability to detoxify methemoglobin. […]"}, "[3]": {"conditions": "neutral or acidic pH; cited from earlier work"}, "feral hogs": {"test_system": "feral hogs", "test": "Vomiting after toxicant baits are consumed", "type": "in vivo, Sus scrofa", "conditions": "preliminary results", "from_the_text": "Another difficulty of using sodium nitrite as a toxicant is that feral hogs can sometimes vomit the baits. The acidic decomposition of sodium nitrite in gastric juices can lead to the release of noxious, gaseous by-products that can induce vomiting. This tendency can be counteracted by incorporating into the bait antiemetic compounds, antacid compounds, or both. Antacids include such compounds as sodium carbonate, sodium bicarbonate, calcium carbonate, magnesium hydroxide, magnesium carbonate, potassium carbonate, amines (e.g. from fish), and potassium bicarbonate. Antacids such as sodium carbonate also help maintain a higher pH level before the bait is consumed. Then after consumption the antacids can help neutralize gastric acid, both inhibiting the breakdown of sodium nitrite in vivo, and also helping to reduce vomiting. […] Anti-emetics can also be employed, for example taste-free ginger extracts containing gingerols. […] Gingerols have the same mechanism of action as drugs such as Zofran (ondansetron), which are prescribed in humans for the treatment of severe, chemotherapy-induced nausea. Other anti-emetics known in the art may also be used."}, "adult hogs": {"test_system": "adult hogs", "conditions": "cited from earlier work"}},
  "data": [
    {"smiles": "O=c1cc(-c2ccc(O)c(O)c2)oc2cc(O)cc(O)c12", "note": "[luteolin]", "values": [
      {"measurement": "IC50", "setting": "[1]", "value": "~110", "unit": "nM"},
      {"measurement": "amount of luteolin needed for 50% inhibition of the MR enzyme", "setting": "[2]", "value": "~2 micrograms per kilogram body mass"},
      {"measurement": "water solubility", "setting": "[3]", "value": "poorly soluble"}
    ]},
    {"smiles": "O=C([O-])[O-].[Na+].[Na+]", "note": "[sodium carbonate]", "values": [
      {"measurement": "effect on vomiting after toxicant baits are consumed", "setting": "feral hogs", "value": "effective in reducing vomiting"}
    ]},
    {"smiles": "O=NO", "note": "[sodium nitrite]", "values": [
      {"measurement": "LD90", "setting": "adult hogs", "value": "about 189 mg/kg"}
    ]}
  ]
}
